Data on 1 compound can be found in patent EP0073758B1, “TREATMENT OF INFLAMMATORY VIRAL INFECTIONS, ACNE, DERMATITIS AND ARTHRITIS CONDITIONS” (priority 1981, dated 1982).

The nature of data set [1]: oral dosages against canker sores. Type of data set: in vivo.
For data set [2] the following is noted: ingested into the human body; rest excreted in the feces; cited from earlier work.
The next data set can be described thus: solubility in DMSO. The conditions noted are these: per one milliliter DMSO; maximum solubility not determined. Type of data set: physicochemical. The method, then:
Topical applications were prepared for the treatment of the external conditions, deseases and symptoms of arthritis, rheumatism, and rheumatoid arthritis or similar conditions. Phenolphthalein was formulated with a topical carrier of dimethyl sulfoxide (DMSO) to aid in the application of phenolphthalein to, and its absorption into, the affected area for the relief of pain and the treatment of the area. It has been discovered that DMSO is an especially effective solvent for phenolphthalein. As little as one milliliter of liquid DMSO will dissolve two-hundred milligrams of phenolphthalein, or powders containing phenolphthalein. This factor coupled with the known ability of DMSO to penetrate organic tissue are believed to allow smaller dosages of phenolphthalein to be used in both oral and topical applications as well as in preparation of injectable solutions. For example the DMSO/phenol- phthalein solution can be formulated into topical carriers which should enhance the penetration of phenolphthalein into the skin, or ingested.

The conditions of data set [3]: stated as well known; cited from earlier work.
A short description of data set [4]: topical application in acne. Type of data set: in vivo. The conditions noted are these: 500 milligrams in 57 g of carrier. An excerpt: In preparing topical applications for the treatment of external conditions, such as dermatitis and acne as well as arthritis, rheumatism, and related conditions, it is within the scope of the invention to formulate phenolphthalein with suitable carriers and bases to aid in the application to, or absorption into, the target or affected area. One group of carriers is the oil-based carriers for external application this group includes dimethyl sulfoxide (DMSO), petrolatum, mineral oil, and anhydrous lanolin. In most topical applications the concentration of the phenolphthalein in the carrier may vary widely. […] It is believed that a concentration of at least about 250 milligrams per 28 g of carrier will be effective.

The subject of the next data set is Herpes Labialis. Type of data set: in vivo, patients. The method, then: In an informal clinical study 41 patients with symptoms of Herpes Labialis were treated with oral dosages of phenolphthalein. The patients were treated at different times over a period of about two months. The initial dosage was one hundred milligrams administered every 8 hours for the first day and every 12 hours thereafter. […] Of the 41 patients treated, 39 made complete recovery within two days without any noticeable development of the cold sore. The other two patients made complete recovery with no swelling or visible evidence of the cold sore remaining after three days. A control group of 24 patients with Herpes Labialis history were selected at random from clinical files as a control group. Of the 24 patients, 5 were excluded because of the total absence of early indications of infection. The other 19 patients were treated conventionally over a 10 day period. Only 4 experienced even partial relief from developing cold sores and 15 developed active cold sores and blisters which lasted up to 4 weeks.
The results of this informal study indicate that phenolphthalein is a very effective drug for preventing and arresting the development of cold sores and blisters at the time of initial appearance in patients.

In data set [5] the test system is Herpes Simplex infections. Kind of data set: oral dosages administered to victims of Herpes Simplex infections. The class given is in vivo.

Take `O=C1OC(c2ccc(O)cc2)(c2ccc(O)cc2)c2ccccc21` [phenolphthalein, 3,3 - Bis(p - hydroxyphenyl) - phthalide]: in data set [1], the “relief and cure of canker sores” value is “effective to relieve and cure canker sores within a matter of hours”. Moreover, the “active drug in solution absorbed into the blood stream” value in data set [2] is on record as “less than 15%”. Besides, the “amount dissolved by one milliliter of liquid DMSO” value in the data set “solubility in DMSO” is on record as “two-hundred”. The solubility in water result in data set [3] is on record as “highly insoluble in water”. The effect against acne result in data set [4] was “effective against acne”. Besides, in the data set with Herpes Labialis (human, in vivo, po), the laxative effect entry is listed as “complaints related to the laxative effect”. Moreover, the “patients who made complete recovery within two days without any noticeable development of the cold sore” value with Herpes Labialis (of the 41 patients treated, oral, initially one hundred milligrams, later 30 milligrams, every 8 hours first day, every 12 hours thereafter) is on record as 39. Further, in the data set on Herpes Labialis (of the 41 patients treated, same oral regimen), the “patients who made complete recovery with no swelling or visible evidence of the cold sore remaining after three days” value was “two”. Moreover, the “follow-up observations: development of Herpes Labialis” value in the data set with Herpes Labialis (the 41 patients treated) is “no development of Herpes Labialis”. Further, the “treatment of Herpes Simplex infections, including cold sores, fever blisters and Herpes Genitalis” value in data set [5] is on record as “successfully administered”.
